Experimental findings from ChEMBL document CHEMBL1148298, “Molecular recognition of sub-micromolar inhibitors by the epinephrine-synthesizing enzyme phenylethanolamine N-methyltransferase” (J Med Chem, 2004) are described below.

What is called Ki is the dissociation constant of the complex between target and ligand, obtained from inhibition or displacement. Low values mean higher affinity, high ones lower affinity. The Km is the concentration of substrate that gives half-maximal velocity.

Data set [1] addresses T1, Alpha-2A adrenergic receptor (Rattus norvegicus, UniProt P22909).
T1 sequence (P22909 whole entry): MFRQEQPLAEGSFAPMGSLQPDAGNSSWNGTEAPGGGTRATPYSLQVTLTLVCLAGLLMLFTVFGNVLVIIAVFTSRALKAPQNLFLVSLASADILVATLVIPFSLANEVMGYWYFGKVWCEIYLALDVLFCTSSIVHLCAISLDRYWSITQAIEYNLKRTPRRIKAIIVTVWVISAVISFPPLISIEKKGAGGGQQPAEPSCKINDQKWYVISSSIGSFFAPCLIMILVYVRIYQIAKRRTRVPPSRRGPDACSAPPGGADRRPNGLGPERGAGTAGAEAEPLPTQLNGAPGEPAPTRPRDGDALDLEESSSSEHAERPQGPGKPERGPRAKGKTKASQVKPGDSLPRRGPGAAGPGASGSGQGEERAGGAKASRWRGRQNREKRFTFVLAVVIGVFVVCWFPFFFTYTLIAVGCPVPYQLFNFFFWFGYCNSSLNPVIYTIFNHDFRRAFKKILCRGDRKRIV
Put plainly: Inhibitory potency against alpha-2-adrenoceptor.

The nature of data set [2]: Selectivity expressed as the ratio of Ki of alpha-2-adrenoceptor to that of PNMT.
Data set [3] addresses T2, Phenylethanolamine N-methyltransferase (Bos taurus, UniProt P10938).
T2 sequence (P10938 whole entry): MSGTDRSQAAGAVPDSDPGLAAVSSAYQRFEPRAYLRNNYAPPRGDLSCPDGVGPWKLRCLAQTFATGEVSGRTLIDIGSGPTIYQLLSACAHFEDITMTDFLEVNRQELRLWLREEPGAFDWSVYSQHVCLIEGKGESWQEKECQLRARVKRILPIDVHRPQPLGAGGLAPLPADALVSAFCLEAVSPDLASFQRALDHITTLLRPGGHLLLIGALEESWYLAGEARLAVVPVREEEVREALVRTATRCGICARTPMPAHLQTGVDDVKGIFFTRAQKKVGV
Put plainly: Inhibitory potency against bovine phenylethanolamine N-Methyltransferase (PNMT).

Substrate in data set [4]: NCC1CNCc2ccccc21
Put plainly: Michaelis-Menten constant was determined against bovine phenylethanolamine N-Methyltransferase (PNMT).

Substrate in data set [5]: NCC1CNCc2ccccc21
Put plainly: (§1) Vmax was determined against bovine phenylethanolamine N-Methyltransferase (PNMT).

Substrate in data set [6]: NC[C@@H](O)c1ccccc1
Described as §1.

In the case of `Clc1ccc2c(c1Cl)CNCC2`, the inhibitory constant (Ki) in data set [1] is […]. Also, the Selectivity in data set [2] came to […].

`Ic1ccc2c(c1)CNCC2` showed an inhibition constant (Ki) in data set [1] of 220 nM.

On to `Clc1ccc2c(c1Cl)CNCCC2`, for which the inhibition constant Ki in data set [1] amounted to 4500 nM. This Ki is about 20-fold higher than that of the molecule before.

`OCC1CNCc2ccccc21` (stereo not drawn) showed a Ki in data set [3] of 170000 nM.

B1: Phenylethanolamine N-methyltransferase (Bos taurus), P10938 (protein)
chain: MSGTDRSQAAGAVPDSDPGLAAVSSAYQRFEPRAYLRNNYAPPRGDLSCPDGVGPWKLRCLAQTFATGEVSGRTLIDIGSGPTIYQLLSACAHFEDITMTDFLEVNRQELRLWLREEPGAFDWSVYSQHVCLIEGKGESWQEKECQLRARVKRILPIDVHRPQPLGAGGLAPLPADALVSAFCLEAVSPDLASFQRALDHITTLLRPGGHLLLIGALEESWYLAGEARLAVVPVREEEVREALVRTATRCGICARTPMPAHLQTGVDDVKGIFFTRAQKKVGV
As to B1, the Michaelis-Menten constant (Km) in data set [4] stood at 47 µM. Further, the Vmax (nM min-1 mg-1) in data set [5] stood at 3.4; in data set [6] it was 2.2.
